What was measured:
[1] = tested on: AMARE; test: Post-emergence herbicidal action against AMARE; format: in vivo, Amaranthus retroflexus; conditions: 20 g/ha, visual assessment about 3 weeks after treatment, 100% = plants have died, 0% = like control plants
Description: (§1) Seeds of monocotyledonous and dicotyledonous weed and crop plants are laid out in sandy loam soil in wood-fiber pots, covered with soil and cultivated in a greenhouse under good growth conditions. 2 to 3 weeks after sowing, the test plants are treated at the one-leaf stage. The compounds of the invention, formulated in the form of wettable powders (WP) or as emulsion concentrates (EC), are then sprayed onto the green parts of the plants in the form of an aqueous suspension or emulsion at a water application rate equivalent to 600 to 800 l/ha, with addition of 0.2% wetting agent. After the test plants have been left to stand in the greenhouse under optimal growth conditions for about 3 weeks, the action of the preparations is assessed visually in comparison to untreated controls (herbicidal action in percent (%): 100% activity=the plants have died, 0% activity=like control plants). […] The tables below illustrate, in an illustrative manner, the post-emergence herbicidal action of the compounds of the invention, the herbicidal activity being stated in percent.

[2] = tested on: ABUTH; test: Post-emergence herbicidal action against ABUTH; format: in vivo, Abutilon theophrasti; conditions: dosage 20 g/ha, visual assessment about 3 weeks after treatment vs untreated controls
Description: as §1

[3] = tested on: ECHCG; test: Pre-emergence herbicidal action against ECHCG; format: in vivo, Echinochloa crus-galli; conditions: 80 g/ha
Description: (§2) Seeds of monocotyledonous and dicotyledonous weed plants and crop plants are laid out in sandy loam soil in wood-fiber pots and covered with soil. The compounds of the invention, formulated in the form of wettable powders (WP) or as emulsion concentrates (EC), are then applied to the surface of the covering soil in the form of an aqueous suspension or emulsion at a water application rate equivalent to 600 to 800 l/ha, with addition of 0.2% wetting agent. After the treatment, the pots are placed in a greenhouse and kept under good growth conditions for the trial plants. The damage to the test plants is scored visually after a test period of 3 weeks by comparison with untreated controls (herbicidal activity in percent (%): 100% activity=the plants have died, 0% activity=like control plants). […] The tables below illustrate, in an illustrative manner, the post-emergence herbicidal action of the compounds of the invention, the herbicidal activity being stated in percent.

[4] = tested on: ABUTH; test: Pre-emergence herbicidal action against ABUTH; format: in vivo, Abutilon theophrasti; conditions: for Pre-emergence action against ABUTH (herbicidal activity in percent): dosage 20 g/ha, scored visually after 3 weeks vs untreated controls, 100% = plants have died, 0% = like control plants
Description: as §2

[5] = tested on: MATIN; test: Pre-emergence herbicidal action against MATIN; format: in vivo, Matricaria inodora
Description: as §2

[6] = tested on: ECHCG; test: Post-emergence herbicidal action against ECHCG; format: in vivo, Echinochloa crus-galli
Description: as §1

[7] = tested on: AMARE; test: Pre-emergence herbicidal action against AMARE; format: in vivo, Amaranthus retroflexus
Description: as §2

[8] = tested on: DIGSA; test: Pre-emergence herbicidal action against DIGSA; format: in vivo, Digitaria sanguinalis
Description: as §2

[9] = tested on: VIOTR; test: Post-emergence herbicidal action against VIOTR; format: in vivo, Viola tricolor; conditions: 20 g/ha
Description: as §1

[10] = tested on: VIOTR; test: Pre-emergence herbicidal action against VIOTR; format: in vivo, Viola tricolor
Description: as §2

[11] = tested on: SETVI; test: Pre-emergence herbicidal action against SETVI; format: in vivo, Setaria viridis
Description: as §2

[12] = tested on: SETVI; test: Post-emergence herbicidal action against SETVI; format: in vivo, Setaria viridis; conditions: dosage 20 g/ha
Description: as §1

[13] = 80 g/ha, scored visually after 3 weeks vs untreated controls (100% = plants have died, 0% = like control plants)
[14] = 20 g/ha, scored visually after 3 weeks vs untreated controls, 100% = plants have died, 0% = like control plants

SMILES	Post-emergence action at 20 g/ha against AMARE in % [1] [%]	Pre-emergence action against ABUTH (herbicidal activity) [4, 13] [%]	Pre-emergence action against MATIN in % ([5]; dosage 80 g/ha) [%]	Post-emergence action against ECHCG in % ([6]; dosage 20 g/ha) [%]	Pre-emergence action against AMARE in % [7, 13] [%]	Pre-emergence action against DIGSA in % ([8]; dosage 80 g/ha) [%]	Pre-emergence action against AMARE in % [7, 14] [%]	also measured
CSc1c(C(=O)Nc2nnc(C)o2)ccc(C(F)(F)F)c1C(=O)NC1CC1 [Example 6-60]	100	90	90	90	100			Post-emergence action against ABUTH in % [2]: 90%; Pre-emergence action against ECHCG in % [3]: 80%
Cc1nnc(NC(=O)c2ccc(C(F)F)c(C(=O)NC3CC3)c2C2CC2)o1 [Example 6-233]				80	80	90		
CNC(=O)c1c(C(F)F)ccc(C(=O)Nc2nnc(C)o2)c1OC [Example 6-49]					100		80	Post-emergence action against ABUTH in % [2]: 80%; Post-emergence action against VIOTR in % [9]: 80%; Pre-emergence action against VIOTR in % ([10]; dosage 20 g/ha): 80%; Pre-emergence action against VIOTR in % ([10]; dosage 80 g/ha): 80%
Cc1nnc(NC(=O)c2ccc(Br)c(C(=O)NC(C)C3CC3)c2Cl)o1 (stereo not shown) [Example 6-257]		100	90	90	100	100		Pre-emergence action against ECHCG in % [3]: 80%; Pre-emergence action against MATIN in % ([5]; dosage 20 g/ha): 80%; Post-emergence action against ECHCG in % ([6]; dosage 5 g/ha): 80%
CCn1nnnc1NC(=O)c1ccc(C(F)F)c(C(=O)NCCSC)c1Cl [Example 2-157]	90				90			
Cn1nnnc1NC(=O)c1ccc(C(F)(F)F)c(C(=O)NCC#N)c1Cl [Example 1-140]	80				100			Post-emergence action against VIOTR in % [9]: 80%; Pre-emergence action against VIOTR in % ([10]; dosage 80 g/ha): 90%
CCn1nnnc1NC(=O)c1ccc(C(F)F)c(C(=O)NCc2cccs2)c1Cl [Example 2-162]	100		90		100		90	Pre-emergence action against ECHCG in % [3]: 80%; Pre-emergence action against VIOTR in % ([10]; dosage 80 g/ha): 80%
Cc1nnc(NC(=O)c2ccc(C(F)F)c(C(=O)NCC3CC3)c2Br)o1 [Example 6-167]	100	100	90	80	100	90	100	Pre-emergence action against SETVI in % ([11]; dosage 20 g/ha): 80%; Pre-emergence action against SETVI in % ([11]; dosage 80 g/ha): 80%; Pre-emergence action against ECHCG in % [3]: 100%; Pre-emergence action against ABUTH (herbicidal activity in percent) [4]: 90%; Pre-emergence action against VIOTR in % ([10]; dosage 20 g/ha): 90%; Pre-emergence action against VIOTR in % ([10]; dosage 80 g/ha): 100%
CCNC(=O)c1c(C(F)F)ccc(C(=O)Nc2nnc(C)o2)c1OC [Example 6-50]		90	80	80	100	100	100	Post-emergence action against ABUTH in % [2]: 80%; Post-emergence action against VIOTR in % [9]: 80%
Cc1nnc(NC(=O)c2ccc(Br)c(C(=O)NCC3CC3)c2Cl)o1 [Example 6-143]		100			100	100	100	Pre-emergence action against ABUTH (herbicidal activity in percent) [4]: 100%
Cc1nnc(NC(=O)c2ccc(C(F)F)c(C(=O)NCC(=O)N(C)C)c2Cl)o1 [Example 6-265]					80			
COc1c(C(=O)Nc2nnc(C)o2)ccc(C(F)F)c1C(=O)NC1CC1 [Example 6-51]		100		80	100	100	80	
CSCCNC(=O)c1c(C(F)F)ccc(C(=O)Nc2nnnn2C)c1Cl [Example 1-157]					100			
N#CCNC(=O)c1c(C(F)(F)F)ccc(C(=O)Nc2nnco2)c1Cl [Example 5-254]	80	100			100			Pre-emergence action against VIOTR in % ([10]; dosage 80 g/ha): 90%
Cc1nnc(NC(=O)c2ccc(Br)c(C(=O)NCC(F)(F)F)c2Cl)o1 [Example 6-144]		90	80	80	100	100	90	Pre-emergence action against SETVI in % ([11]; dosage 80 g/ha): 90%; Pre-emergence action against ECHCG in % [3]: 100%; Pre-emergence action against DIGSA in % ([8]; dosage 20 g/ha): 90%
CCn1nnnc1NC(=O)c1ccc(C(F)F)c(C(=O)NCCSC)c1C [Example 2-347]		100						
Cn1nnnc1NC(=O)c1ccc(C(F)(F)F)c(C(=O)Nc2ccccc2)c1Cl [Example 1-143]								pest or weed control at 80 g/ha ([8]; Digitaria sanguinalis, 504 h, dosage 80 g/ha): 80%; pest or weed control at 80 g/ha ([4]; Abutilon theophrasti, 504 h, 80 g/ha, scored visually after 3 weeks vs untreated controls (100% = plants have died, 0% = like control plants)): 100%; pest or weed control at 20 g/ha ([5]; Tripleurospermum inodorum, 504 h, dosage 20 g/ha): 80%; pest or weed control at 80 g/ha ([5]; Tripleurospermum inodorum, 504 h, dosage 80 g/ha): 100%; pest or weed control at 80 g/ha ([7]; Amaranthus retroflexus, 504 h, 80 g/ha, scored visually after 3 weeks vs untreated controls, 100% = plants have died, 0% = like control plants): 100%
CSc1c(C(=O)Nc2nnc(C)o2)ccc(C(F)F)c1C(=O)NC1CC1 [Example 6-76]	100		90	80	100			Post-emergence action against SETVI in % [12]: 80%; Pre-emergence action against SETVI in % ([11]; dosage 80 g/ha): 80%

Source: US12655116B2, “Substituted isophthalic acid diamides” (Bayer Aktiengesellschaft, priority 2020, dated 2026)
